Target: T1, human OX2R (Homo sapiens, UniProt O43614)
T1 construct: expressed in transfected cells; host or cells: CHO (Chinese hamster ovary) cells grown under G418 selection
T1 sequence (O43614 1-444): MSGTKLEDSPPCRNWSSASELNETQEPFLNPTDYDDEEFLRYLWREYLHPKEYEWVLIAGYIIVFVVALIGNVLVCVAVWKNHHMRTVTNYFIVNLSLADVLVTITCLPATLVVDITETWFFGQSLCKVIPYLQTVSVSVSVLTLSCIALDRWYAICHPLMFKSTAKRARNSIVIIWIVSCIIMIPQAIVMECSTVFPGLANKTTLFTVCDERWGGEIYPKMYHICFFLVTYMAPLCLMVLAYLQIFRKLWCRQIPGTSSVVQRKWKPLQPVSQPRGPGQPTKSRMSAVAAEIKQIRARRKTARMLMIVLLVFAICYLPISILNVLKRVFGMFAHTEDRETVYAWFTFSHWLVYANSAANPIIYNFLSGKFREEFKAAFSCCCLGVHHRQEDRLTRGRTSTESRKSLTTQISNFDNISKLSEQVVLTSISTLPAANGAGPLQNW
Assay: IPOne (IP-1 accumulation) assay in CHO cells expressing human OX2R
Assay type: cell-based
Details: for EC50: CHO cells expressing human OX2R, IP-One assay, 2 h incubation, four parameter logistic fit, read-out: OX2R Potency, EC50; for % of maximum agonist effect (relative to Orexin A): percent effect vs mean max effect of a reference compound at 1 uM (100% activity vs Orexin A), human OX2R
Procedure, shortened: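 CHO cells stably expressing human OX2R, grown in Iscove's modified DMEM with 10% FBS; agonist-driven IP-1 accumulation via the Gαq pathway measured by HTRF (D2/AB-cryptate detection after lysis). EC50 taken as the inflection point of a four-parameter logistic fit.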

Row | Compound | EC50 | % of maximum agonist effect (relative to Orexin A)
1 | CCN(C(=O)N[C@@H](COC1CC1)C(F)(F)F)[C@@H](c1cc(-c2cn3cc(C)nc3c(OC)n2)c(OC)cn1)C(F)(F)F [Example 2-18, 3-((S)-3-cyclopropoxy-1,1,1-trifluoropropan-2-yl)-1-ethyl-1-((S)-2,2,2-trifluoro-1-(5-methoxy-4-(8-methoxy-2-methylimidazo[1,2-a]pyrazin-6-yl)pyridin-2-yl)ethyl)urea] | 29.9 nM | 99.6%
2 | CCN(C(=O)N[C@@H](CCC(F)(F)F)C(F)(F)F)C(c1ncc(OC)c(-c2cn3ccnc3c(OC)n2)n1)C(F)(F)F (stereo partly drawn) [Example 10-4, 1-ethyl-3-((S)-1,1,1,5,5,5-hexafluoropentan-2-yl)-1-(2,2,2-trifluoro-1-(5-methoxy-4-(8-methoxyimidazo[1,2-a]pyrazin-6-yl)pyrimidin-2-yl)ethyl)urea] | 1.3 nM | 100.7%
3 | CCC(CCC(F)(F)F)NC(=O)N(CC)[C@H](C)c1cccc(-c2cnc3nccn3c2)c1 (stereo partly drawn) [Example 8-7, 1-ethyl-1-((R)-1-(3-(imidazo[1,2-a]pyrimidin-6-yl)phenyl)ethyl)-3-(6,6,6-trifluorohexan-3-yl)urea] | 180 nM | 99.3%
4 | CCN(C(=O)NC(CCC(F)(F)F)C(C)(F)F)[C@H](C)c1cccc(-c2cn3ccnc3c(OC)n2)c1 (stereo partly drawn) [Example 2-55, 1-ethyl-1-((R)-1-(3-(8-methoxyimidazo[1,2-a]pyrazin-6-yl)phenyl)ethyl)-3-(2,2,6,6,6-pentafluorohexan-3-yl)urea] | 129 nM | 99.4%
5 | CCN(C(=O)N[C@@H](CCC(F)(F)F)C(F)(F)F)[C@H](C)c1cc(-c2cn3ccnc3c(OC)n2)c(OC)nn1 [Example 10-3, 1-ethyl-3-((S)-1,1,1,5,5,5-hexafluoropentan-2-yl)-1-((R)-1-(6-methoxy-5-(8-methoxyimidazo[1,2-a]pyrazin-6-yl)pyridazin-3-yl)ethyl)urea] | 0.8 nM | 101.7%
6 | CCN(C(=O)N[C@@H](CCC(F)(F)F)C(F)(F)F)[C@@H](c1cc(-c2cc(F)c3ncnn3c2)c(OC)cn1)C(F)(F)F [Example 9-10, 1-ethyl-3-((S)-1,1,1,5,5,5-hexafluoropentan-2-yl)-1-((S)-2,2,2-trifluoro-1-(4-(8-fluoro-[1,2,4]triazolo[1,5-a]pyridin-6-yl)-5-methoxypyridin-2-yl)ethyl)urea] | 608 nM | 97.1%
7 | CCN(C(=O)N[C@@H](CCC(F)(F)F)C(F)(F)F)[C@@H](c1cc(-c2nc(OC)c3nccn3n2)c(OC)cn1)C(F)(F)F [Example 9-11, 1-ethyl-3-((S)-1,1,1,5,5,5-hexafluoropentan-2-yl)-1-((S)-2,2,2-trifluoro-1-(5-methoxy-4-(4-methoxyimidazo[2,1-f][1,2,4]triazin-2-yl)pyridin-2-yl)ethyl)urea] | 2.6 nM | 99.5%
8 | CC[C@H](CCC(F)(F)F)NC(=O)N(CC)[C@H](C)c1ccc(Br)c(-c2ccc3nccn3c2)c1 [Example 11-3, 1-((R)-1-(4-bromo-3-(imidazo[1,2-a]pyridin-6-yl)phenyl)ethyl)-1-ethyl-3-((R)-6,6,6-trifluorohexan-3-yl)urea] | 129 nM | 91.8%
9 | CCNC(=O)N(CC)[C@H](C)c1cccc(-c2cc(OC)c3nccn3c2)c1 [Example 2-68, (R)-1,3-diethyl-1-(1-(3-(8-methoxyimidazo[1,2-a]pyridin-6-yl)phenyl)ethyl)urea] | 179 nM | 83.3%
10 | CCN(C(=O)N[C@@H](CCC(F)(F)F)C(F)(F)F)C(c1cc(-c2cn3ccnc3c(OC)n2)c(OC)c(C)n1)C(F)(F)F (stereo partly drawn) [Example 10-6, 1-ethyl-3-((S)-1,1,1,5,5,5-hexafluoropentan-2-yl)-1-(2,2,2-trifluoro-1-(5-methoxy-4-(8-methoxyimidazo[1,2-a]pyrazin-6-yl)-6-methylpyridin-2-yl)ethyl)urea] | 9.2 nM | 98.9%
11 | CCN(C(=O)N[C@@H](CCC(F)(F)F)C(F)(F)F)C(c1cc(-c2cn3ccnc3c(OC)n2)c2occc2n1)C(F)(F)F (stereo partly drawn) [Example 2-13, 1-ethyl-3-((S)-1,1,1,5,5,5-hexafluoropentan-2-yl)-1-(2,2,2-trifluoro-1-(7-(8-methoxyimidazo[1,2-a]pyrazin-6-yl)furo[3,2-b]pyridin-5-yl)ethyl)urea] | 2.1 nM | 99.9%
12 | CC[C@H](CCC(F)(F)F)NC(=O)N(CC)[C@H](C)c1cccc(-c2cc(C(F)F)c3nccn3c2)c1 [Example 7-3, 1-((R)-1-(3-(8-(difluoromethyl)imidazo[1,2-a]pyridin-6-yl)phenyl)ethyl)-1-ethyl-3-((R)-6,6,6-trifluorohexan-3-yl)urea] | 491 nM | 86.1%
13 | CCC(/C=C/C(F)(F)F)NC(=O)N(CC)[C@@H](c1cc(-c2cn3cc(C)nc3c(OC)n2)c(OC)cn1)C(F)(F)F (stereo partly drawn) [Example 6-5, 1-ethyl-1-((S)-2,2,2-trifluoro-1-(5-methoxy-4-(8-methoxy-2-methylimidazo[1,2-a]pyrazin-6-yl)pyridin-2-yl)ethyl)-3-((E)-6,6,6-trifluorohex-4-en-3-yl)urea] | 18.9 nM | 100.0%
14 | CCN(C(=O)N[C@@H](CCC(F)(F)F)C(F)(F)F)[C@@H](c1cccc(-c2cn3ccnc3c(OC)n2)c1)C(F)(F)F [Example 2-22, N-ethyl-N′-[(2S)-1,1,1,5,5,5-hexafluoropentan-2-yl]-N-{2,2,2-trifluoro-1-[3-(8-methoxyimidazo[1,2-a]pyrazin-6-yl)phenyl]ethyl}urea] | 2.8 nM | 101.5%
15 | CCCN(C(=O)N[C@H](CC)CCC(F)(F)F)[C@H](C)c1cccc(-c2cn3ccnc3c(OC)n2)c1 [Example 2-59, 1-((R)-1-(3-(8-methoxyimidazo[1,2-a]pyrazin-6-yl)phenyl)ethyl)-1-propyl-3-((R)-6,6,6-trifluorohexan-3-yl)urea] | 20.9 nM | 100.2%

The remaining lines, values ahead:

Row | EC50 | % of maximum agonist effect (relative to Orexin A) | Compound
16 | 2130 nM | 97.2% | CCN(C(=O)N[C@@H](CCC(F)(F)F)C(F)(F)F)C(=C(F)F)c1cc(-c2cn3ccnc3c(OC)n2)c(OC)cn1 [Example 28, (S)-1-(2,2-difluoro-1-(5-methoxy-4-(8-methoxyimidazo[1,2-a]pyrazin-6-yl)pyridin-2-yl)vinyl)-1-ethyl-3-(1,1,1,5,5,5-hexafluoropentan-2-yl)urea]
17 | 5.2 nM | 98.3% | CCN(C(=O)N[C@H](C)c1cccc(F)c1)[C@H](C)c1cccc(-c2cn3ccnc3c(OC)n2)c1 [Example 1-2, 1-ethyl-3-((R)-1-(3-fluorophenyl)ethyl)-1-((R)-1-(3-(8-methoxyimidazo[1,2-a]pyrazin-6-yl)phenyl)ethyl)urea]
18 | 2.7 nM | 100.8% | CCN(C(=O)N[C@@H](CCC(F)(F)F)C(F)(F)F)[C@@H](c1ccc(OC)c(-c2ccc3nccn3c2)c1)C(F)(F)F [Example 2-23, 1-ethyl-3-((S)-1,1,1,5,5,5-hexafluoropentan-2-yl)-1-((S)-2,2,2-trifluoro-1-(3-(imidazo[1,2-a]pyridin-6-yl)-4-methoxyphenyl)ethyl)urea]
19 | 146 nM | 80.7% | CCN(C(=O)NC(CN(C)C)C(F)(F)F)[C@H](C)c1cccc(-c2cc(OC)n3nccc3c2)c1 (stereo partly drawn) [Example 1-13, 3-(3-(dimethylamino)-1,1,1-trifluoropropan-2-yl)-1-ethyl-1-((R)-1-(3-(7-methoxypyrazolo[1,5-a]pyridin-5-yl)phenyl)ethyl)urea]
20 | 40.8 nM | 101.0% | CCN(C(=O)NC1CC1)[C@@H](c1cc(-c2cn3ccnc3c(OC)n2)c(OC)cn1)C(F)(F)F [Example 2-32, (S)-3-cyclopropyl-1-ethyl-1-(2,2,2-trifluoro-1-(5-methoxy-4-(8-methoxyimidazo[1,2-a]pyrazin-6-yl)pyridin-2-yl)ethyl)urea]
21 | 18.5 nM | 101.3% | CCN(C(=O)NC(CC#N)C(F)(F)F)[C@H](C)c1cccc(-c2cn3ccnc3c(OC)n2)c1 (stereo partly drawn) [Example 1-14, 3-(3-cyano-1,1,1-trifluoropropan-2-yl)-1-ethyl-1-((R)-1-(3-(8-methoxyimidazo[1,2-a]pyrazin-6-yl)phenyl)ethyl)urea]
22 | 22.6 nM | 101.0% | CC[C@H](CCC(F)F)NC(=O)N(CC)[C@@H](c1cc(-c2cn3cc(C)nc3c(OC)n2)c(OC)cn1)C(F)(F)F [Example 6-1, 3-((R)-6,6-difluorohexan-3-yl)-1-ethyl-1-((S)-2,2,2-trifluoro-1-(5-methoxy-4-(8-methoxy-2-methylimidazo[1,2-a]pyrazin-6-yl)pyridin-2-yl)ethyl)urea]

From patent publication US12692262B2, “Substituted ureas as orexin receptor agonists” (Merck Sharp & Dohme LLC, priority 2020, dated 2026)
